Values quoted from earlier work as cited in patent US20260335309A1, “METHODS OF TREATING UVEAL MELANOMA” (IDEAYA BIOSCIENCES, INC., priority 2022, published 2026).

System: uveal melanoma cells harboring GNAQ mutations
Conditions: by targeting PKC/ERK1/2 and PKC/NF-xB pathways; X. Wu et al., Mol. Cancer Ther. 2012

For `CN1CCN(c2nc(C3=C(c4c[nH]c5ccccc45)C(=O)NC3=O)c3ccccc3n2)CC1` [sotrastaurin], the “inhibition of growth of uveal melanoma cells harboring GNAQ mutations” value is given as “selectively inhibit the growth of uveal melanoma cells harboring GNAQ mutations”.
